Measurements taken from ChEMBL document CHEMBL4020821, “Targeting Acidic Mammalian chitinase Is Effective in Animal Model of Asthma” (J Med Chem, 2018).

Experiments:
[1] = biological target: T1, Chitotriosidase-1 (Mus musculus, UniProt Q9D7Q1); experiment: Inhibition of mouse recombinant full length C-terminal His-tagged chitotriosidase expressed in CHO-K1 cells using 4-methylumbelliferyl-beta-D-N,N',N\"\"-triacetylchitotrioside as substrate after 60 mins by fluorescence assay; assay type: cell-based
[2] = biological target: T2, Acidic mammalian chitinase (Mus musculus, UniProt Q91XA9); experiment: Inhibition of mouse recombinant full length C-terminal His-tagged acidic mammalian chitinase expressed in CHO-K1 cells using 4-methylumbelliferyl-beta-D-N,N'-diacetylchitobioside hydrate as substrate after 60 mins by fluorescence assay
[3] = biological target: T3, Chitotriosidase-1 (Homo sapiens, UniProt Q13231); experiment: Inhibition of human recombinant full length C-terminal His-tagged chitotriosidase expressed in CHO-K1 cells using 4-methylumbelliferyl-beta-D-N,N',N\"\"-triacetylchitotrioside as substrate after 60 mins by fluorescence assay; assay type: cell-based
[4] = Volume of distribution at steady state in BALB/c mouse at 3 mg/kg, iv by LC-MS/MS analysis; assay type: ADME, organism-based; details: in vivo, read-out: Vdss
[5] = AUC (0 to infinity) in BALB/c mouse at 10 mg/kg, po by LC-MS/MS analysis; assay type: ADME, organism-based; set-up: dose 10 mg/kg, route oral, time infinity; details: in vivo
[6] = Clearance in BALB/c mouse at 3 mg/kg, iv by LC-MS/MS analysis; assay type: ADME, organism-based; details: in vivo
[7] = Oral bioavailability in BALB/c mouse at 10 mg/kg by LC-MS/MS analysis; assay type: ADME, organism-based; details: in vivo
[8] = AUC (0 to infinity) in BALB/c mouse at 3 mg/kg, iv by LC-MS/MS analysis; assay type: ADME, organism-based; set-up: dose 3 mg/kg, route intravenous, time infinity; details: in vivo
[9] = Cmax in BALB/c mouse at 10 mg/kg, po by LC-MS/MS analysis; assay type: ADME, organism-based; set-up: dose 10 mg/kg, route oral; details: in vivo
[10] = Tmax in BALB/c mouse at 10 mg/kg, po by LC-MS/MS analysis; assay type: ADME, organism-based; details: in vivo
[11] = Stability in liver microsomes (unknown origin) assessed as compound remaining after 20 mins; assay type: ADME, microsome; details: read-out: Stability
[12] = Half life in BALB/c mouse at 3 mg/kg, iv by LC-MS/MS analysis; assay type: ADME, organism-based; details: in vivo
[13] = biological target: T2, Acidic mammalian chitinase; experiment: Inhibition of mouse recombinant full length C-terminal His-tagged acidic mammalian chitinase expressed in CHO-K1 cells using 4-methylumbelliferyl-beta-D-N,N'-diacetylchitobioside hydrate as substrate after 60 mins by Lineweaver-Burk plot analysis
[14] = biological target: T3, Chitotriosidase-1; experiment: Inhibition of human recombinant full length C-terminal His-tagged chitotriosidase expressed in CHO-K1 cells using 4-methylumbelliferyl-beta-D-N,N',N\"\"-triacetylchitotrioside as substrate after 60 mins by Lineweaver-Burk plot analysis; assay type: cell-based
[15] = biological target: T1, Chitotriosidase-1; experiment: Inhibition of mouse recombinant full length C-terminal His-tagged chitotriosidase expressed in CHO-K1 cells using 4-methylumbelliferyl-beta-D-N,N',N\"\"-triacetylchitotrioside as substrate after 60 mins by Lineweaver-Burk plot analysis; assay type: cell-based
[16] = test system: Salmonella typhimurium; experiment: Genotoxicity in Salmonella typhimurium by Ames test; assay type: toxicity; details: salmonella enterica subsp. enterica serovar typhimurium

T1 sequence (Q9D7Q1 whole entry): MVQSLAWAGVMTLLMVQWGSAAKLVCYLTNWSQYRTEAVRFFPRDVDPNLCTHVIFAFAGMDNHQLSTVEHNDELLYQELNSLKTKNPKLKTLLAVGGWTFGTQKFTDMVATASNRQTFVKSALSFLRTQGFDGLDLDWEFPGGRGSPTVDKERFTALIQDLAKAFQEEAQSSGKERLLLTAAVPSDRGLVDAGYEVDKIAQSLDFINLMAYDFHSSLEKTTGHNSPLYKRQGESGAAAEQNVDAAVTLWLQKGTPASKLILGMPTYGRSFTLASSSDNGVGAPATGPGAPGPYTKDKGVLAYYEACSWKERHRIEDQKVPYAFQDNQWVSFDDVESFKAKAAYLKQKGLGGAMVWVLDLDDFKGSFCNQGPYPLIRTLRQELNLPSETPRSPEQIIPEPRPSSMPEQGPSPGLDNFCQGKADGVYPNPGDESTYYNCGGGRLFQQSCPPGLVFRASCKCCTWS
T3 sequence (Q13231 whole entry): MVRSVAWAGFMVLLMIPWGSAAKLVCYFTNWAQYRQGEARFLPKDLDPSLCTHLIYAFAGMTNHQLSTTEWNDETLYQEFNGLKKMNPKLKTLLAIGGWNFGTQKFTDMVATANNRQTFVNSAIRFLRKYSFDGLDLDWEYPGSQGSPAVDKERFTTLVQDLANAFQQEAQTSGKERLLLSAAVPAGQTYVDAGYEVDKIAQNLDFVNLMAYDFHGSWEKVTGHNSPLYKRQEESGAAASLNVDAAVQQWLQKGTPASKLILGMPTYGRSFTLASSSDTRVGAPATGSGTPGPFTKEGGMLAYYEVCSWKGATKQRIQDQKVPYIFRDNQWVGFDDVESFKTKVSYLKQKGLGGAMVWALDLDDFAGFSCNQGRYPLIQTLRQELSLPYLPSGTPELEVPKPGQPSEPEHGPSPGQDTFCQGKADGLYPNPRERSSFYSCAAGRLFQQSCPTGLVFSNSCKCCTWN
T2 sequence (Q91XA9 whole entry): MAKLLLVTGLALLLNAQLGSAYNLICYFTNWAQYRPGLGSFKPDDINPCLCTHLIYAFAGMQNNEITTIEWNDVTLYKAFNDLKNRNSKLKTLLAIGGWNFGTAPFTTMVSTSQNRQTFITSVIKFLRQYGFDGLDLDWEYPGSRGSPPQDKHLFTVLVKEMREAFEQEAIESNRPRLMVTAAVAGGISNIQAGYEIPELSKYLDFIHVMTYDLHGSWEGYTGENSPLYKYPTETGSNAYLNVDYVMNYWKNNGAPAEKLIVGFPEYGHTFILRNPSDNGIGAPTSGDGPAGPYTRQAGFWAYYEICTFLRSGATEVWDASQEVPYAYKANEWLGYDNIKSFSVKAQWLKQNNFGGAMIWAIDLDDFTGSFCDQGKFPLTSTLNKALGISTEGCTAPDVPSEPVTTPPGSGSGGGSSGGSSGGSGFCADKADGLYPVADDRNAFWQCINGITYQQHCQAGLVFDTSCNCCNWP

| SMILES | IC50 [1] | IC50 [3] | further results |
| --- | --- | --- | --- |
| Nc1n[nH]c(N2CCN(CCOc3ccc(Br)cc3)CC2)n1 | 19.8 µM | 6.76 µM | IC50 [2]: 2.1 µM |
| Nc1n[nH]c(N2CCC(NC(=O)Nc3ccc(Br)cc3)CC2)n1 | > 100 µM | > 100 µM |  |
| CN(CCc1ccccc1)C1CCN(c2nc(N)n[nH]2)CC1 | > 100 µM | > 100 µM |  |
| CN(CCc1ccc(Cl)cc1)C1CCN(c2nc(N)n[nH]2)CC1 | 7.47 µM | 0.389 µM |  |
| CN(CCc1ccc(C(C)(C)C)cc1)C1CCN(c2nc(N)n[nH]2)CC1 | > 100 µM | 4.16 µM |  |
| Nc1n[nH]c(N2CCC(NS(=O)(=O)Cc3ccc(Br)cc3)CC2)n1 | > 100 µM | > 100 µM | Vd [4]: 1.16 L/kg; AUC(0-inf) [5]: 8210 ng·h/mL; clearance [6]: 11.5 mL/min/kg; bioavailability [7]: 57%; AUC(0-inf) [8]: 4340 ng·h/mL; Cmax [9]: 3250 ng/mL; Tmax [10]: 1 h; remaining at 20 min [11]: 100%; half-life [12]: 11.1 h |
| CC(C)CN(CCc1ccc(Br)cc1)C1CCN(c2nc(N)n[nH]2)CC1 | 1.27 µM | 0.123 µM | Vd [4]: 1.66 L/kg; AUC(0-inf) [5]: 27900 ng·h/mL; clearance [6]: 8.53 mL/min/kg; bioavailability [7]: 100%; AUC(0-inf) [8]: 5860 ng·h/mL; Cmax [9]: 6040 ng/mL; Tmax [10]: 0.5 h; remaining at 20 min [11]: 78.3%; half-life [12]: 3.25 h |
| CC(C)c1ccc(CCN(C)C2CCN(c3nc(N)n[nH]3)CC2)cc1 | 6.96 µM | 1.17 µM |  |
| Nc1n[nH]c(N2CCC(C(=O)NCc3ccc(Br)cc3)CC2)n1 | > 100 µM | > 100 µM |  |
| CCN(CCc1ccc(Cl)cc1)C1CCN(c2nc(N)n[nH]2)CC1 | 7.08 µM | 0.385 µM |  |
| CC(C)N(CCc1ccc(Cl)cc1)C1CCN(c2nc(N)n[nH]2)CC1 | 15.6 µM | 0.945 µM |  |
| CC(C)CN(CCc1ccc(Cl)cc1)C1CCN(c2nc(N)n[nH]2)CC1 | 2.96 µM | 0.232 µM | Vd [4]: 2.33 L/kg; Ki [13]: 0.0105 µM; AUC(0-inf) [5]: 9560 ng·h/mL; clearance [6]: 9.06 mL/min/kg; Ki [14]: 0.312 µM; bioavailability [7]: 52%; AUC(0-inf) [8]: 5520 ng·h/mL; Ki [15]: 3.4 µM; Cmax [9]: 1860 ng/mL; IC50 [2]: 0.0188 µM; Tmax [10]: 0.25 h; remaining at 20 min [11]: 76.9%; half-life [12]: 2.97 h; Activity [16]: Non-Toxic |
| Nc1n[nH]c(N2CCC(N(CCc3ccc(Cl)cc3)Cc3ccccc3)CC2)n1 | 1.51 µM | 0.163 µM | IC50 [2]: 0.0112 µM |
| Nc1n[nH]c(N2CCC(N(CCc3ccc(Cl)cc3)Cc3ccccc3Cl)CC2)n1 | 2.58 µM | 0.149 µM | Vd [4]: 3.03 L/kg; AUC(0-inf) [5]: 1750 ng·h/mL; clearance [6]: 45 mL/min/kg; bioavailability [7]: 47%; AUC(0-inf) [8]: 1110 ng·h/mL; Cmax [9]: 618 ng/mL; IC50 [2]: 0.0097 µM; Tmax [10]: 1 h; remaining at 20 min [11]: 21%; half-life [12]: 6.78 h |
| CN(Cc1ccc(Br)cc1)CC1CCN(c2nc(N)n[nH]2)CC1 | > 100 µM | > 100 µM |  |
| Cc1ccc(CCN(C)C2CCN(c3nc(N)n[nH]3)CC2)cc1 | 12.6 µM | 1.53 µM |  |
| Nc1n[nH]c(N2CCC(N(CCc3ccc(Cl)cc3)CC3CCCCC3)CC2)n1 | 2.03 µM | 0.123 µM |  |
| CN(CCc1ccc(Cl)cc1Cl)C1CCN(c2nc(N)n[nH]2)CC1 | 47.6 µM | 2.26 µM |  |
| Nc1n[nH]c(N2CCC(N(CCc3ccc(Cl)cc3)Cc3cccc4ccccc34)CC2)n1 | 0.573 µM | 0.036 µM |  |
| CN(CCc1ccc(Br)cc1)C1CCN(c2nc(N)n[nH]2)CC1 | 2.7 µM | 0.175 µM | Vd [4]: 12.8 L/kg; AUC(0-inf) [5]: 3340 ng·h/mL; clearance [6]: 52.6 mL/min/kg; bioavailability [7]: 99%; AUC(0-inf) [8]: 950 ng·h/mL; Cmax [9]: 672 ng/mL; Tmax [10]: 2 h; remaining at 20 min [11]: 97.5%; half-life [12]: 4.4 h |
| Nc1n[nH]c(N2CCC(NC(=O)Cc3ccc(Br)cc3)CC2)n1 | > 100 µM | > 100 µM |  |
| CN(CCc1ccc(C2CC2)cc1)C1CCN(c2nc(N)n[nH]2)CC1 | 3.07 µM | 0.765 µM |  |
| CN(C1CCN(c2nc(N)n[nH]2)CC1)S(=O)(=O)Cc1ccc(Br)cc1 | > 100 µM | > 100 µM |  |
| Nc1n[nH]c(N2CCN(C(=O)COc3ccc(Br)cc3)CC2)n1 | > 100 µM | > 100 µM |  |
| CCN(CCc1ccc(Br)cc1)C1CCN(c2nc(N)n[nH]2)CC1 | 2.72 µM | 0.105 µM |  |
| Nc1n[nH]c(N2CCC(CNC(=O)c3ccc(Br)cc3)CC2)n1 | > 100 µM | 23.1 µM |  |
| CCc1ccc(CCN(C)C2CCN(c3nc(N)n[nH]3)CC2)cc1 | 7.12 µM |  |  |
